Earlier results in EP2703009A1, “Combination treatments involving antibodies to human PCSK9” (SANOFI, priority 2012, dated 2014).

What was measured:
[1] = in vivo; cited from earlier work
[2] = after oral administration; cited from earlier work
[3] = test system: patients with genotype-confirmed hoFH; details: ezetimibe 10 mg/day added to the maximal dose of statins; cited from earlier work
PCSK9 = details: stated as known for statins and ezetimibe; limited or no information on ezetimibe alone; cited from earlier work

## CC(C)OC(=O)C(C)(C)Oc1ccc(C(=O)c2ccc(Cl)cc2)cc1 [fenofibrate]
[1]
  Frequent adverse events reported: abdominal pain, nausea, vomiting, diarrhea, flatulence, increase ALT/AST
  Less frequently reported adverse events: pancreatitis, thromboembolism (pulmonary embolism, deep venous thrombosis), biliary lithiasis, rash, pruritus, urticaria, photosensitivity reaction, increase creatinine and increase urea

## O=C(O)[C@H]1O[C@@H](Oc2ccc([C@@H]3[C@@H](CC[C@H](O)c4ccc(F)cc4)C(=O)N3c3ccc(F)cc3)cc2)[C@H](O)[C@@H](O)[C@@H]1O [ezetimibe-glucuronide]
[2]
  half-life (elimination from plasma): approximately 22 hours

## O=C1[C@H](CC[C@H](O)c2ccc(F)cc2)[C@@H](c2ccc(O)cc2)N1c1ccc(F)cc1 [ezetimibe]
[3]
  total reduction of LDL-C levels: 27%
[1]
  Frequent adverse events reported: abdominal pain, diarrhea, flatulence, fatigue, increase ALT/AST, headache and myalgia
PCSK9
  PCSK9 expression: upregulated

## CC(C)(Oc1ccc(C(=O)c2ccc(Cl)cc2)cc1)C(=O)O [Fenofibric acid]
[2]
  half-life (elimination from plasma): 20 h
